Reference: US11780845B2 (Relay Therapeutics, Inc., priority 2019, dated 2023)

Tests used:
FGFR2 = FGFR2 (Homo sapiens (Human), UniProt P21802); experiment: FGFR2 Biochemical Caliper Assay
Experimental: Compounds of the present invention were also tested in a FGFR2 Biochemical Caliper Assay. Compounds were prepared in 10 mM DMSO solution and serially diluted into 11 concentrations by 3-fold dilution. […] 5 uL of ATP solution (100 uM) was added to start the reaction and the plate was incubated for 90 minutes, then 70 uL of stopping buffer (0.5M EDTA) was added to terminate the reaction. Each well was analyzed using EZ reader.

SNU16 cells = experiment: SNU16 Cancer Cell Line Proliferation Assay; assay type: cell-based; conditions: Homo sapiens; SNU-16 cells
Experimental: Compounds of the present invention were also tested in a SNU16 Cancer Cell Line Proliferation Assay, Test compounds were prepared in a 10 mM DMSO stock solution. 45 uL of stock solution was transferred to a 384 well plate, and a 3-fold 11-point dolution was performed. SNU16 cells in a 384 well cell culture plate were seeded and incubated at 37 degrees for 24 hours. 40 nL of each concentration of compound was transferred from the compound plate to a corresponding well in the cell culture plate by Echo550 liquid handler. The plates were incubated for 96 hours, then equilibrated to room temperature for 15 minutes. 20 uL of CellTiter Glo reagent is added into each well, then the plate was shaken gently for 30 minutes at room temperature. Chemiluminescence was then read on an EnVision reader.

Chain of FGFR2 (P21802 22-821): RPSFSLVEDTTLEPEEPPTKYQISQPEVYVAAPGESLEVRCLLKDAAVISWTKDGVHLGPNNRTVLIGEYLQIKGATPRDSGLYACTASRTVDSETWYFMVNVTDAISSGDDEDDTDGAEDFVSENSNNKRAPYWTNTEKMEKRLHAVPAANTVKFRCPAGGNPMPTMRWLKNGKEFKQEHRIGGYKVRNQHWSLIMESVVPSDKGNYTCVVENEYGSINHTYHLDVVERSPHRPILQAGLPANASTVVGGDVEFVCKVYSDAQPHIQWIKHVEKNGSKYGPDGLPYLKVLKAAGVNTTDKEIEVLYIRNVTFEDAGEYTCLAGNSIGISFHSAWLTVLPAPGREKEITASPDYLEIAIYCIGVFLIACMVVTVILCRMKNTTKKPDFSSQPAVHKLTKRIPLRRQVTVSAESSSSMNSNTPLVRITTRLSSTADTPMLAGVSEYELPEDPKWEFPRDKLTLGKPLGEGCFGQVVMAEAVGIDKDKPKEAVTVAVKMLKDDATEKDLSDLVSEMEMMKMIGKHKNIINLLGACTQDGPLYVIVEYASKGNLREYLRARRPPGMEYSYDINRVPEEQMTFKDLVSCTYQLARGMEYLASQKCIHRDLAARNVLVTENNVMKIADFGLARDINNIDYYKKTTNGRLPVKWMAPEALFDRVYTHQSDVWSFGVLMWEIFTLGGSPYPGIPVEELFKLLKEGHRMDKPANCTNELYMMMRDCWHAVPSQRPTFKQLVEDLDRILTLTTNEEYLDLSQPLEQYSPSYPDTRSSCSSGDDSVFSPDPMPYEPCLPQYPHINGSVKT

SMILES	IC50 (FGFR2) [µM]	IC50 (SNU16 cells) [µM]
C=CC(=O)N1CC[C@@H](c2c(-c3ccc(Oc4ncccn4)cc3)c3c(N)ncnc3n2CC)C1 (single isomer, unassigned) [Example 708]	< 0.1	≤ 0.1
C=CC(=O)N1CC[C@H](c2c(-c3ccc(Oc4ncccn4)cc3)c3c(N)ncnc3n2CC)C1 (single isomer, unassigned) [Example 710]	0.25 to 1	0.1 to 0.25
C=CC(=O)N1CC[C@@H](c2c(-c3ccc(Oc4cccc(C)n4)cc3)c3c(N)ncnc3n2C)C1 (single isomer, unassigned) [Example 711]	< 0.1	≤ 0.1
C=CC(=O)N1CC[C@H](c2c(-c3ccc(Oc4cccc(C)n4)cc3)c3c(N)ncnc3n2C)C1 (single isomer, unassigned) [Example 712]	< 0.1	≤ 0.1
C=CC(=O)N1CC[C@@H](c2[nH]c3ncnc(N)c3c2-c2ccc(Oc3cccc(C)n3)cc2)C1 (single isomer, unassigned) [Example 752]	< 0.1	≤ 0.1
C=CC(=O)N1CC[C@H](c2[nH]c3ncnc(N)c3c2-c2ccc(Oc3cccc(C)n3)cc2)C1 (single isomer, unassigned) [Example 754]	0.25 to 1	0.1 to 0.25
C=CC(=O)Nc1ccc(-c2c(-c3ccc(Oc4cccc(C)n4)c(OC)c3)c3c(N)ncnc3n2C)cc1 [Example 1]	< 0.1	≤ 0.1
C=C(C)C(=O)Nc1ccc(-c2c(-c3ccc(Oc4cccc(C)n4)c(OC)c3)c3c(N)ncnc3n2C)cc1 [Example 4]	< 0.1	≤ 0.1
C=CC(=O)Nc1ccc(-c2c(-c3ccc(Oc4ccccn4)c(OC)c3)c3c(N)ncnc3n2C)cc1 [Example 5]	< 0.1	≤ 0.1
C=CC(=O)Nc1ccc(-c2c(-c3ccc(Oc4cccc(C)n4)cc3)c3c(N)ncnc3n2C)cc1F [Example 11]	< 0.1	≤ 0.1
C=CC(=O)Nc1ccc(-c2c(-c3ccc(Oc4cccc(C)n4)cc3)c3c(N)ncnc3n2C)cc1OC [Example 14]	< 0.1	≤ 0.1
C=CC(=O)Nc1ccc(-c2c(-c3ccc(Oc4ncccn4)c(OC)c3)c3c(N)ncnc3n2C)cc1 [Example 15]	< 0.1	≤ 0.1
C/C=C/C(=O)Nc1ccc(-c2c(-c3ccc(Oc4cccc(C)n4)c(OC)c3)c3c(N)ncnc3n2C)cc1 [Example 31]	< 0.1	≤ 0.1
C=CC(=O)Nc1ccc(-c2c(-c3ccc(Oc4ncc(C)cn4)c(OC)c3)c3c(N)ncnc3n2C)cc1 [Example 32]	< 0.1	≤ 0.1
C=CC(=O)Nc1ccc(-c2c(-c3ccc(Oc4cccc(Cl)n4)c(OC)c3)c3c(N)ncnc3n2C)cc1 [Example 35]	< 0.1	≤ 0.1
C=C(C)C(=O)Nc1ccc(-c2c(-c3ccc(Oc4ncccn4)c(OC)c3)c3c(N)ncnc3n2C)cc1 [Example 36]	0.25 to 1	0.1 to 0.25
C=CC(=O)Nc1ccc(-c2c(-c3ccc(Oc4nccc(C)n4)c(OC)c3)c3c(N)ncnc3n2C)cc1 [Example 38]	< 0.1	≤ 0.1
C=CC(=O)Nc1ccc(-c2c(-c3ccc(Oc4ccc(C)c(C)n4)c(OC)c3)c3c(N)ncnc3n2C)cc1 [Example 45]	< 0.1	≤ 0.1
C=CC(=O)Nc1ccc(-c2c(-c3ccc(Oc4ncccn4)c(C(F)(F)F)c3)c3c(N)ncnc3n2C)cc1 [Example 47]	< 0.1	≤ 0.1
C=CC(=O)Nc1ccc(-c2c(-c3ccc(Oc4ncccn4)c(CC)c3)c3c(N)ncnc3n2C)cc1 [Example 48]	< 0.1	≤ 0.1
C=CC(=O)Nc1ccc(-c2c(-c3ccc(Oc4ncccn4)c(N(C)C)c3)c3c(N)ncnc3n2C)cc1 [Example 49]	< 0.1	≤ 0.1
C=CC(=O)Nc1ccc(-c2c(-c3ccc(Oc4cccc(CC)n4)c(OC)c3)c3c(N)ncnc3n2C)cc1 [Example 50]	< 0.1	≤ 0.1
C=CC(=O)Nc1ccc(-c2c(-c3ccc(Oc4ncccn4)c(OCC)c3)c3c(N)ncnc3n2C)cc1 [Example 51]	< 0.1	≤ 0.1
C=CC(=O)Nc1ccc(-c2c(-c3ccc(Oc4ncccn4)c(OC(F)(F)F)c3)c3c(N)ncnc3n2C)cc1 [Example 53]	< 0.1	≤ 0.1
C=CC(=O)Nc1ccc(-c2c(-c3ccc(Oc4ncccn4)cc3)c3c(N)ncnc3n2C)cc1 [Example 54]	< 0.1	≤ 0.1
C=CC(=O)Nc1ccc(-c2c(-c3ccc(Oc4ncc(CO)cn4)c(OC)c3)c3c(N)ncnc3n2C)cc1 [Example 60]	< 0.1	0.25 to 1
C=C(C)C(=O)Nc1ccc(-c2c(-c3ccc(Sc4ncccn4)cc3)c3c(N)ncnc3n2C)cc1 [Example 69]	0.25 to 1	0.25 to 1

SMILES	IC50 (FGFR2) [µM]	IC50 (SNU16 cells) [µM]
Cc1cccc(Oc2ccc(-c3c(-c4ccc(NC(=O)C(C)C)cc4)n(C)c4ncnc(N)c34)cc2)n1 [Example 70]	0.25 to 1	0.25 to 1
C=CC(=O)Nc1ccc(-c2c(-c3ccc(Oc4ncc(Cl)cn4)c(OC)c3)c3c(N)ncnc3n2C)cc1 [Example 78]	< 0.1	≤ 0.1
C=C(C)C(=O)Nc1ccc(-c2c(-c3ccc(Oc4cccc(C)n4)cc3)c3c(N)ncnc3n2CC)cc1 [Example 83]	< 0.1	≤ 0.1
C=C(C)C(=O)Nc1ccc(-c2c(-c3ccc(NC(C)=O)c(OC)c3)c3c(N)ncnc3n2C)cc1 [Example 86]	1 to 100	0.25 to 1
C=C(C)C(=O)Nc1ccc(-c2c(-c3ccc(Oc4cccc(C)n4)cc3)c3c(N)ncnc3n2C2CC(O)C2)cc1 (stereo not drawn) [Example 90]	< 0.1	≤ 0.1
C=C(C)C(=O)Nc1ccc(-c2c(-c3ccc(Oc4cccc(C)n4)cc3)c3c(N)ncnc3n2CCO)cc1 [Example 91]	< 0.1	≤ 0.1
C=C(C)C(=O)Nc1ccc(-c2c(-c3cc(F)c(Oc4ncccn4)c(Cl)c3)c3c(N)ncnc3n2C)cc1 [Example 94]	< 0.1	≤ 0.1
C=C(C)C(=O)Nc1ccc(-c2c(-c3ccc(C(=O)N4CCCC4)cc3)c3c(N)ncnc3n2C)cc1 [Example 95]	0.1 to 0.25	≤ 0.1
C=C(C)C(=O)Nc1ccc(-c2c(-c3ccc(Oc4ncc(C)cn4)c(F)c3)c3c(N)ncnc3n2C)cc1 [Example 96]	< 0.1	≤ 0.1
C=CC(=O)Nc1ccc(-c2c(-c3ccc(Oc4ncc(NC)cn4)c(OC)c3)c3c(N)ncnc3n2C)cc1 [Example 98]	< 0.1	≤ 0.1
C=C(C)C(=O)Nc1ccc(-c2c(-c3ccc(Oc4ccn(C)n4)c(OC)c3)c3c(N)ncnc3n2C)cc1 [Example 100]	0.25 to 1	0.1 to 0.25
C=CC(=O)Nc1ccc(-c2c(-c3ccc(Oc4ncc(F)cn4)c(OC)c3)c3c(N)ncnc3n2C)cc1 [Example 101]	< 0.1	≤ 0.1
C=CC(=O)Nc1ccc(-c2c(-c3ccc(Oc4ncc(Cl)cn4)cc3)c3c(N)ncnc3n2C)cc1 [Example 103]	< 0.1	≤ 0.1
C=C(C)C(=O)Nc1ccc(-c2c(-c3cc(F)c(Oc4ncccn4)c(F)c3)c3c(N)ncnc3n2C)cc1 [Example 110]	< 0.1	≤ 0.1
C=CC(=O)Nc1ccc(-c2c(-c3ccc(Oc4ncc(C(F)F)cn4)c(OC)c3)c3c(N)ncnc3n2C)cc1 [Example 113]	< 0.1	≤ 0.1
C=C(C)C(=O)Nc1ccc(-c2c(-c3ccc(Oc4ccc(F)cn4)c(F)c3)c3c(N)ncnc3n2C)cc1 [Example 114]	0.25 to 1	0.1 to 0.25
C=C(C)C(=O)Nc1ccc(-c2c(-c3ccc(Oc4ncc(F)cn4)c(F)c3)c3c(N)ncnc3n2C)cc1 [Example 116]	< 0.1	≤ 0.1
C=C(C)C(=O)Nc1ccc(-c2c(-c3ccc(Oc4ccc(OC)c(F)n4)cc3)c3c(N)ncnc3n2C)cc1 [Example 117]	0.25 to 1	0.1 to 0.25
C=CC(=O)Nc1ccc(-c2c(-c3cc(C)c(Oc4ncccn4)c(OC)c3)c3c(N)ncnc3n2C)cc1 [Example 120]	< 0.1	≤ 0.1
C=CC(=O)Nc1ccc(-c2c(-c3ccc(Oc4ccc(Cl)c(C)n4)cc3)c3c(N)ncnc3n2C)cc1 [Example 123]	< 0.1	≤ 0.1
C=CC(=O)Nc1ccc(-c2c(-c3ccc(C(=O)N4CCCC4)cc3)c3c(N)ncnc3n2C)cc1 [Example 128]	< 0.1	≤ 0.1
C=C(C)C(=O)Nc1ccc(-c2c(-c3ccc(C(=O)N4CC(C)C4)cc3)c3c(N)ncnc3n2C)cc1 [Example 135]	0.25 to 1	0.1 to 0.25
C=C(C)C(=O)Nc1ccc(-c2c(-c3ccc(C(=O)N4CCC(F)(F)C4)cc3)c3c(N)ncnc3n2C)cc1 [Example 137]	0.25 to 1	≤ 0.1
C=C(C)C(=O)Nc1ccc(-c2c(-c3ccc(Cn4nc(C)cc4C)cc3)c3c(N)ncnc3n2C)cc1 [Example 140]	0.25 to 1	0.1 to 0.25
C=C(C)C(=O)Nc1ccc(-c2c(-c3ccc(C(=O)N4CCCCC4)cc3)c3c(N)ncnc3n2C)cc1 [Example 141]	< 0.1	≤ 0.1
C=C(C)C(=O)Nc1ccc(-c2c(-c3ccc(C(=O)N(C)C)nc3)c3c(N)ncnc3n2C)cc1 [Example 143]	1 to 100	0.25 to 1
C=CC(=O)Nc1ccc(-c2c(-c3ccc(Oc4ccn(C)n4)c(OC)c3)c3c(N)ncnc3n2C)cc1 [Example 145]	< 0.1	≤ 0.1
